Data as given in ChEMBL document CHEMBL1129949, “Correlation of antimalarial activity of artemisinin derivatives with binding affinity with ferroprotoporphyrin IX” (J Med Chem, 1997).

Tested on: Plasmodium falciparum
Test: Mean of EC50 values for FM3A cells/ mean of EC50 values for Plasmodium falciparum
Assay type: functional, organism-based

SMILES | IC50 [nM]
CC1C(OC(=O)CCC(=O)O)O[C@@H]2O[C@]3(C)CC[C@H]4[C@H](C)CC[C@@H]1[C@@]24OO3 (some centres undefined) | 0.62
CC1C(O)O[C@@H]2OC3(C)CC[C@H]4[C@H](C)CC[C@@H]1[C@@]24OO3 (single isomer, unassigned) | 1.1
COC1O[C@@H]2OC3(C)CC[C@H]4[C@H](C)CC[C@@H](C1C)[C@@]24OO3 (single isomer, unassigned) | 4.1
C[C@@H]1CC[C@H]2C(Cn3ccnc3)C(O)O[C@@H]3OC4(C)CC[C@@H]1[C@]32OO4 (single isomer, unassigned) | 0.39
CCOC1O[C@@H]2OC3(C)CC[C@H]4[C@H](C)CC[C@@H](C1C)[C@@]24OO3 (single isomer, unassigned) | 24
C[C@@H]1CC[C@H]2C(Cn3ccnc3)C(=O)O[C@@H]3OC4(C)CC[C@@H]1[C@]32OO4 (single isomer, unassigned) | 32
C[C@@H]1CC[C@H]2C(CSc3ccccc3)C(=O)O[C@@H]3OC4(C)CC[C@@H]1[C@]32OO4 (single isomer, unassigned) | 20
C=C1C(=O)O[C@@H]2OC3(C)CC[C@H]4[C@H](C)CC[C@@H]1[C@@]24OO3 (single isomer, unassigned) | 30
C[C@@H]1CC[C@H]2[C@@H](C)C(=O)O[C@@H]3O[C@@]4(C)CC[C@@H]1[C@]32OO4 [ARTEMISININ] | 5
